Assays:
Type in all cases: in vivo, human
[1] = test system: Achilles tendinopathy (heels); assay: Three year follow-up study of the Achilles trial of Example 1; details: for Night Pain—All Heels (mean adjusted for baseline) / Pain at Rest—All Heels (mean adjusted for baseline) / Pain With Activity—All Heels (mean adjusted for baseline) / Tenderness—All Heels (mean adjusted for baseline) / Hop Test—All Heels (mean adjusted for baseline): N=32; for Pain With Activity—All Heels (mean adjusted for baseline): scale 0-4; for Tenderness—All Heels (mean adjusted for baseline): scale 0-3; for Hop Test—All Heels (mean adjusted for baseline): pain score 0-10
Method: A three year follow-up study of the experiment presented in Example 1 was performed. […] Among the 52 patients in follow-up study ([…]), 15 had bilateral involvement (7 on the active patch and 8 on placebo). The results are presented in two sets. The follow-up study used the same outcome measures as were used in the original parent study.
The first set compares the results of the 68 heels and the second set results are shown for the 52 patients by averaging results for patients with bilateral involvement. Analyses were performed as analyses of covariance, with the baseline assessment as the covariate, to adjust the results for baseline differences. Mean results shown in Tables III-XIII below are adjusted for the baseline values.

[2] = test system: persistent active tendinopathy of the left Achilles tendon; assay: Example 3: patient case, persistent active tendinopathy of the left Achilles tendon; details: patch 30 mcg/hr for 8 weeks
Description: A patient suffering from persistent active tendinopathy of the left Achilles tendon applies a transdermal patch delivering 30 mcg/hr nitroglycerin for a period of 8 weeks.

[3] = test system: chronic overuse tendinopathies; assay: The three tendinopathy clinical trials taken together
Description: Three clinical trials were approved by an institutional Ethics Committee. Patients with clinical diagnoses of the specified tendinopathies were recruited through newspaper advertisements and private consulting rooms. All subjects were over 18 years of age, and gave written informed consent.
The patients were randomly allocated into two groups. […] The active and placebo patches were indistinguishable from one another. The randomization was controlled by the senior pharmacist at the institution who also supervised the packaging of transdermal patches and their distribution to patients. Both the patients and the clinical examiner were blinded as to which group the patients were in, i.e. double-blind.
Patients were instructed in the application of the patches at their initial visit. They were informed that the dosing regimen was one quarter of a transdermal patch to be applied daily to the skin area closest to the affected tendon. The patches were to be left in situ for 24 hours and then replaced with a new quarter patch. […] Patients were instructed to rotate the patch application site around this point with each new patch application for the six-month study duration in an effort to minimize application site irritation.
A single examiner assessed all patients and recorded information on clinical outcome measures. All clinical assessments were repeated at week 0, 2, 6, 12, and 24 with an identical format. Records of headaches, paracetamol use, and compliance with patch application and the tendon rehabilitation program were also made at these scheduled visits. Patients were excluded from the trials for non-compliance at any two visits.
Outcome measures were analyzed with Sigmastat 2.0 statistical software (Jandel Scientific, California, U.S.A) using Mann-Whitney rank sum tests to compare differences between groups, and using the Wilcoxon sign rank test to compare differences within the groups. The level of significance was defined at p=0.05. A Chi square analysis of patient reported symptom outcomes at week 24 was performed. Effect size estimates were calculated by dividing the mean z-score, calculated from all outcome measures at week 24, by the square root of the sample size to given a general measure of the overall effect of the patch on pain, tendon force and function.

[4] = 3 years, N=24, placebo 0.51, p=0.09
[5] = 24 weeks, N=24, placebo 0.86, p=0.09
[6] = GTN group, range over three trials
[7] = GTN groups, range over three trials

O=[N+]([O-])OCC(CO[N+](=O)[O-])O[N+](=O)[O-] [glyceryl trinitrate, 1,2,3-propanetriol trinitrate]
Night Pain—Average Result Used for Bilateral Patients ([1]; 3 years, N=24, placebo 0.29, p=0.06): 0.07 | Pain at Rest—Average Result Used for Bilateral Patients ([1]; 3 years, N=24, placebo 0.39, p=0.08): 0.10 | Hop Test—Average Result Used for Bilateral Patients [1, 4]: 0.15 | Pain With Activity—Average Result Used for Bilateral Patients [1, 4]: 0.15 | Tenderness—Average Result Used for Bilateral Patients ([1]; 3 years, N=24, placebo 0.66, p=0.052): 0.33 | RTS, % ([1]; 3 years, N=24, placebo 71.4%, p=0.16): 87.5% | Night Pain—All Heels (mean adjusted for baseline) ([1]; 3 years, placebo 0.27, p=0.07): 0.10 | Pain at Rest—All Heels (mean adjusted for baseline) ([1]; 3 years, placebo 0.35, p=0.07): 0.10 | Pain With Activity—All Heels (mean adjusted for baseline) ([1]; 3 years, placebo 0.50, p=0.059): 0.16 | Tenderness—All Heels (mean adjusted for baseline) ([1]; 3 years, placebo 0.66, p=0.031): 0.35 | Hop Test—All Heels (mean adjusted for baseline) ([1]; 3 years, placebo 0.96, p=0.07): 0.36 | Night Pain—Average Result Used for Bilateral Patients ([1]; 24 weeks, N=24, placebo 0.34, p=0.11): 0.15 | Pain at Rest—Average Result Used for Bilateral Patients ([1]; 24 weeks, N=24, placebo 0.46, p=0.20): 0.26 | Hop Test—Average Result Used for Bilateral Patients [1, 5]: 0.44 | Pain With Activity—Average Result Used for Bilateral Patients [1, 5]: 0.44 | Tenderness—Average Result Used for Bilateral Patients ([1]; 24 weeks, N=24, placebo 0.90, p=0.43): 0.70 | Night Pain—All Heels (mean adjusted for baseline) ([1]; 24 weeks, placebo 0.30, p=0.36): 0.19 | Pain at Rest—All Heels (mean adjusted for baseline) ([1]; 24 weeks, placebo 0.41, p=0.35): 0.29 | Pain With Activity—All Heels (mean adjusted for baseline) ([1]; 24 weeks, placebo 0.78, p=0.22): 0.52 | Tenderness—All Heels (mean adjusted for baseline) ([1]; 24 weeks, placebo 0.83, p=0.49): 0.69 | Hop Test—All Heels (mean adjusted for baseline) ([1]; 24 weeks, placebo 1.57, p=0.026): 0.61 | results of each assessment vs placebo ([1]; both at 24 weeks and at 3 years): numerically better results | pain and tenderness of the ankle after discontinuation ([2]; eight weeks following discontinuation): continue to feel decreased pain and tenderness of the ankle | pain and tenderness of the ankle during therapy ([2]; person): reduction of pain and tenderness of the ankle by day 2 of therapy | headache as a side-effect ([3]; GTN group): majority of patients | average number of days of headache [3, 6]: 5 to 6 days | headache, patients [3, 6]: 53-76% | median number of days of headache [3, 6]: 3 to 4 days | headaches that occurred within the first two weeks of the trial ([3]; GTN groups): 72% | average paracetamol usage [3, 7]: 7-14 tablets | median paracetamol usage [3, 7]: 2-10 tablets | patients that experienced no side-effects [3, 7]: 30-44% | total paracetamol usage [3, 7]: 138-237 tablets | patients experiencing application site rash ([3]; GTN groups, range over three trials, placebo 7-12%): 8-21% | tendon pain with activity vs placebo ([3]; all three trials, timing varied): significantly improved | chance of being asymptomatic with activities of daily living vs placebo (Chi square) ([3]; at 24 weeks, all three clinical trials, p=0.001): significantly increased | more patients than in the placebo group asymptomatic with activities of daily living (rated tendon excellent) ([3]; completion of the trials, range over three trials): 21-29% | changes in patient success rates (binomial effect size displays) ([3]; equivalent to effect sizes at week 24): 12-26% | other side-effects (increase in pre-existing tinnitus, ipsilateral axillary sweating, apprehension): severity and reversibility ([3]; human, in vivo): None of these were severe, and all were reversible on discontinuation of the medication | severity of rash vs placebo ([3]; human, in vivo): greater severity of rash | patients discontinued due to headache ([3]; in each clinical trial): 1-2 patients | severity of headaches vs placebo ([3]; in general): more severe headaches | patients discontinued during the trials ([3]; of clinical trial patients, all in GTN groups, headache or application site rash): 4-6% | patients discontinued due to rash, total ([3]; three trials): five | patients discontinued for recurrent facial flushing ([3]; type 2 diabetic, reversible on discontinuation): One | decrease of patient-rated pain scores, range over the trials ([3]; week 0 compared with week 24): 64-67% | increase of force outcome measures, range over the trials ([3]; week 0 compared with week 24): 33-38% | increase of force outcome measures, average ([3]; week 0 compared with week 24, placebo […]%): 37% | decrease of patient-rated pain scores (with activity, at night, at rest), average ([3]; week 0 compared with week 24, placebo 30%): 65% | force outcome measures vs placebo ([3]; week 24, all three trials): significant increases | mean estimated effect sizes ([3]; week 24, range over three trials): 0.12-0.26

Source: patent US20060286159A1 (priority 2003, published 2006)
